Experimental data from patent publication US10449200B2, “Combined inhibition of the vitamin D receptor and poly(ADP) ribose polymerase (PARP) in the treatment of cancer” (Institute for Cancer Research, priority 2014, dated 2019).

Experiments:
BxPC3 cells [1] = assay: Rucaparib clonogenic assay; type: cell-based; details: Homo sapiens
Method: (§1) Cell viability assays. For clonogenic assays, 1000 cells per well were seeded into 6 well plates on day 0. Cells were treated with gemcitabine at various doses on day 1 for 24 hours, Gemcitabine was washed out on day 2, and cells were allowed to grow for a subsequent 10 days before being fixed (10% methanol+10% acetic acid) and stained with crystal violet (0.4% in 20% ethanol) for colony counting and quantitation. For Rucaparib clonogenic assays, the drug was added at various doses 24 hours after cell plating, and cells were allowed to grow for a subsequent 10 days in the presence of Rucaparib. For TSA clonogenic assays, the drug was added for 4 hours prior to addition of gemcitabine or vehicle for another 18 hours before drugs were washed away, and cells were allowed to grow in drug-free medium for 10 days.
(§2) BxPC3 and Panc1 cells were transfected with control, VDR, and BRCA1 siRNAs and their sensitivity to Rucaparib treatment was compared by clonogenic survival. […] For BXPC3 cells, the IC50s after knockdown of BRCA1 and VDR were 1 and 5 uM, respectively (FIG. 6, A) compared to the control IC50 of 9 μM.

Panc1 cells = assay: Rucaparib clonogenic assay; type: cell-based; details: Homo sapiens
Method: as §1, §2

BxPC3 cells [2] = assay: Immunofluorescence of DNA damage foci (phospho-γH2AX, Rad51, 53BP1) after gemcitabine; type: cell-based, human; details: BxPC3 VDRkd, TSA (500 nM) treatment, 4 hrs in gemcitabine (50 nM)
Method: For Immunofluorescence, cells were plated onto coverslips 24 hours pre-gemcitabine treatment. At different timepoints post gemcitabine treatment, cells were permeablized, fixed (4% paraformaldehyde) and stained. Antibodies to γH2AX (Millipore; 05-636), Rad51 (a gift), and 53BP1 were used. Alexa Fluor-conjugated (488, 555, and 647 nm) secondary antibodies (Molecular probes; A-11029, A-21428, A-21247) were used at a final concentration of 1 and nuclei counterstained with DAPI. Images were captured using a 40× or 63× high NA objective mounted on a semi-automated inverted microscope (Nikon TEi) with a charge-coupled device camera (Photometrics1394) using Nikon Elements 2.0. Exposure times for antibodies were optimized for control samples and identical exposure times used for the experimental samples. Images were quantitated and analyzed using Nikon Elements 2.0. Confocal images were taken using a Leica TCS-SP8 microscope controlled by LAS software (Leica Microsystems).
It was investigated if these repair pathways were abrogated after VDR knockdown by staining for foci formation by phospho-γH2AX, Rad51, and 53BP1, and measuring intensities after gemcitabine treatment (FIGS. 3, 4, and 5). BxPC3 (high VDR expression) and Panc1 (low VDR expression) cells were treated with gemcitabine (50 nM) for 2, 4, 8, and 18 hours, and fixed and stained for phospho-γH2AX, 53BP1, and Rad51. Foci quantitation included counting of nuclei with >5 foci and a separate measurement of the sum intensities of foci that were averaged for 5 separate immunofluorescence experiments. […] Weak but detectable phospho-γH2AX foci were visible within 4 hours of gemcitabine treatment in BxPC3 cells while it took 18 hours for foci to form in Panc1 cells (FIG. 3, A). Similarly, Rad51 foci were visible after 8 hours of gemcitabine treatment in BxPC3 cells compared to 18 hours in Panc1 cells (FIG. 3, A, FIG. 4, and FIG. 5).

Compound | IC50 (BxPC3 cells [1]; BXPC-3, BXPC3, knockdown of BRCA1 (siRNA)) [nM] | IC50 (BxPC3 cells [1]; BXPC-3, BXPC3, knockdown of VDR (siRNA)) [nM] | IC50 (BxPC3 cells [1]; BXPC-3, BxPC3, control siRNA) [nM] | IC50 (Panc1 cells; PANC-1, Panc1, control siRNA) [nM] | IC50 (Panc1 cells; PANC-1, Panc1, knockdown of BRCA1 (siRNA)) [nM] | IC50 (Panc1 cells; PANC-1, Panc1, knockdown of VDR (siRNA)) [nM] | cells exhibiting Rad51 foci (BxPC3 cells [2]) [%]
CNCc1ccc(-c2[nH]c3cc(F)cc4c3c2CCNC4=O)cc1 [Rucaparib] | 1000 | 5000 | 9000 | 4000 | 3.5 | 400 | –
CC(/C=C/C(=O)NO)=C\[C@@H](C)C(=O)c1ccc(N(C)C)cc1 [TSA, trichostatin A] | – | – | – | – | – | – | 89
